In patent US4871774A, “Medical treatment” (The Boots Company PLC, priority 1987, dated 1989):

System: dopamine reuptake; unilateral nigrostriatal lesioned rats
Test: Ipsilateral circling behaviour of unilateral nigrostriatal (6-OHDA) lesioned rats
Assay type: in vivo, rat (CD)
Details: methamphetamine challenge 2 mg/kg intraperitoneal; selected rats
From the text: The two tracts of the nigrostriatal dopamine system are independent and are located on either side of the midline of the brain. When one tract is destroyed using the specific neurotoxin, 6-hydroxydopamine (6-OHDA), rats will display characteristic circling behaviour after injection of dopaminergic drugs. The direction of rotation, however, is dependent on the stimulus employed. Drugs which inhibit dopamine reuptake can only function on the unlesioned side of the brain and induce circling towards the lesion site (known as ipsilateral circling.)
Male CD rats (250-300 g: Charles River) were anaesthetised with `Equithesin` type anaesthetic (3.2 ml/kg i.p.) and secured in a stereotaxic frame (David Kopf Small Animal Stereotaxic Instrument DKI 900). After shaving the area, a saggital incision of 1.5-2 cm was made and skin flaps dissected from the skull. A small hole was made in the skull, using a No. 6 dental burr, to allow the tip of a 30 s.w.g. stainless steel cannula to be inserted to the left substantia nigra. This was located by using the following co-ordinates, using skull landmark bregma as the zero reference point; rostral-caudal -2.8; medial-lateral +2.0; dorsal-ventral -8.0 from the surface of the dura, all co-ordinates measured in millimetres. This system of co-ordinates is a modification of the de Groot system as described by Pellegrino et al (A stereotaxic atlas of the rat brain, 2nd Edition, Plenum Press 1979). 6-Hydroxydopamine HBr (2 μg/μl, as base: Sigma Chemical Co.) was injected into the left substantia nigra at 1 μl/min; a total of 8 μg was administered over a period of 4 minutes using an infusion pump (Braun `Perfusor` ED2). After removal of the cannula, the skin flaps were joined with a single everted suture and the animal allowed to recover.
After 21 days, the circling behaviour of the rats was examined. They were placed, individually, in circular plastic arenas (30 cm diameter×12 cm high) for 1 hour, with no access to food or water during this period. […] One `turn` consisted of rotation through 360° in either direction. As rats were always lesioned on the left side of the brain, anticlockwise turns were ipsilateral.
Control values were determined for all rats by observing their spontaneous circling behaviour in the arenas without prior dosing. The mean turns per minute was always less than 1.
The rats were challenged with an intraperitoneal dose of methamphetamine (2 mg/kg) and immediately placed in the arenas. In these experiments circling behaviour was monitored during two periods, 0-1 h and 4-5 h after dosing. Rats giving a mean of more than 5 ipsilateral turns per minute during the first hour in response to methamphetamine were used in subsequent tests. Following selection, the rats were used in groups of 5 or more rats to test the drug under investigation.

Question: For `CN[C@@H](C)Cc1ccccc1` [methamphetamine, reference compound], which “mean response of the group, ipsilateral turns per minute” value is on record?
Answer: Its value is “more than 10 ipsilateral turns per minute”.
